Reference: patent US11225491B2, “Thiazolo-pyrimidine HIV-1 reverse transcriptase inhibitor, preparation method therefor, and uses thereof” (priority 2018, dated 2022)
Where two headings read alike, the source gives them in different places.

What was measured:
[1] = test system: HIV-1 K103N+Y181C (RES056); assay: microbe, parasite or virus in culture; assay type: cell-based; conditions: for EC50: Human immunodeficiency virus 1, MT4, read-out: EC50 RES056; for SI RES056: selectivity index, ratio of CC50/EC50, strain RES056
[2] = test system: mutant HIV-1 strain E138K; assay: microbe, parasite or virus in culture; assay type: cell-based; conditions: Human immunodeficiency virus 1, MT4, read-out: EC50 E138K
[3] = test system: mutant HIV-1 strain Y181C; assay: microbe, parasite or virus in culture; assay type: cell-based; conditions: Human immunodeficiency virus 1, MT4, read-out: EC50 Y181C
[4] = test system: WT HIV-1 strain (IIIB); assay: Anti-HIV activity in MT-4 cells, MTT method, WT strain IIIB; assay type: cell-based; conditions: for SI IIIB: selectivity index, ratio of CC50/EC50, strain IIIB
[5] = test system: mutant HIV-1 strain Y188L; assay: microbe, parasite or virus in culture; assay type: cell-based; conditions: Human immunodeficiency virus 1, MT4, read-out: EC50 Y188L
[6] = in vitro; conditions: human
[7] = test system: mutant HIV-1 strain F227L + V106A; assay: microbe, parasite or virus in culture; assay type: cell-based; conditions: Human immunodeficiency virus 1, MT4, read-out: EC50 F227L + V106A
[8] = test system: mutant HIV-1 strain L100I; assay: microbe, parasite or virus in culture; assay type: cell-based; conditions: Human immunodeficiency virus 1, MT4, read-out: EC50 L100I
[9] = Cytotoxicity in mock-infected MT-4 cells, MTT method; conditions: human
[10] = test system: mutant HIV-1 strain K103N; assay: microbe, parasite or virus in culture; assay type: cell-based; conditions: Human immunodeficiency virus 1, MT4, read-out: EC50 K103N
[11] = Human immunodeficiency virus 1, MT4, 50% protection of MT-4 cell cultures against HIV-1-induced cytopathic effect, MTT method, strain IIIB, read-out: EC50 IIIB

Row | Structure (SMILES) | EC50 [1] [nM] | EC50 [2] [nM] | EC50 [3] [nM] | EC50 [4, 11] [nM] | EC50 [5] [nM] | CC50 at 5 days [6] [nM] | EC50 [7] [nM] | EC50 [8] [nM] | EC50 ([4]; Human immunodeficiency virus 1, IIIB, MT4, read-out: EC50 IIIB) [nM] | CC50 at 5 days [9] [nM] | SI RES056 [1] | SI IIIB [4] | EC50 [10] [nM]
1 | Cc1cc(C#N)cc(C)c1Oc1nc(Nc2ccc(C#N)cc2)nc(N)c1Br [ETR, Etravirine, reference compound] | 45.4 ± 15.5 | 9.7 ± 6.9 | 14.5 ± 8.2 | 5.1 ± 0.8 | 20.4 ± 8.6 | > 4590 | 19.7 ± 7.3 | 6 ± 1.5 |  |  |  |  | 
2 | Cc1ccnc2c1NC(=O)c1cccnc1N2C1CC1 [NVP, Nevirapine, reference compound] | > 9510 |  |  |  |  |  |  |  | 163 ± 41.2 | > 9510 |  |  | 
3 | Cc1cc(C#N)cc(C)c1Oc1nc(NC2CCN(Cc3ccc(S(N)(=O)=O)cc3)CC2)nc2ncsc12 [SZ1] | 26.1 ± 1.5 | 6.5 ± 1.5 | 6.7 ± 1.2 | 2.2 ± 0.9 | 11.4 ± 2.3 | 25100 ± 749 | 18.8 ± 4.5 | 7.8 ± 0.2 |  |  | 961 | 11071 | 3.9 ± 1.9
4 | CNS(=O)(=O)c1ccc(CN2CCC(Nc3nc(Oc4c(C)cc(C#N)cc4C)c4scnc4n3)CC2)cc1 [SZ2] | 19.4 ± 13.1 | 9.2 ± 0.7 | 7.3 ± 0.1 | 4.8 ± 0.1 | 14 ± 2 | 13700 ± 3470 | 22.6 ± 3.8 | 8.7 ± 0.3 |  |  | 710 | 2828 | 5.1 ± 1
5 | Cc1cc(C#N)cc(C)c1Oc1nc(NC2CCN(Cc3ccc(S(=O)(=O)NC4CC4)cc3)CC2)nc2ncsc12 [SZ3] | 41.3 ± 5.2 |  |  | 5 ± 0.2 |  | 23200 ± 4520 |  |  |  |  | 561 | 4564 | 
6 | Cc1cc(C#N)cc(C)c1Oc1nc(NC2CCN(Cc3ccc(S(=O)(=O)N4CCOCC4)cc3)CC2)nc2ncsc12 [SZ4] | 94.4 ± 0.5 |  |  | 3.7 ± 0.8 |  | 17600 ± 2370 |  |  |  |  | 187 | 4665 | 
7 | Cc1cc(C#N)cc(C)c1Oc1nc(NC2CCN(Cc3ccc(C(N)=O)cc3)CC2)nc2ncsc12 [SZ5] | > 15600 |  |  | > 15600 |  | 15500 ± 2840 |  |  |  |  | <1 | <1 | 
8 | Cc1cc(C#N)cc(C)c1Oc1nc(NC2CCN(Cc3ccc(S(C)(=O)=O)cc3)CC2)nc2ncsc12 [SZ6, 3,5-dimethyl-4-((5-((1-(4-(methylsulfonyl)benzyl)piperidin-4-yl)amino)thiazolo[4,5-d]pyrimidin-7-yl)oxy)benzonitrile] | 27.4 ± 0.3 | 6.1 ± 1.1 | 7 ± 0.9 | 2.2 ± 0.6 | 10.7 | 10900 ± 2750 | 15.4 ± 2.3 | 3.2 ± 0.7 |  |  | 400 | 4816 | 3.8 ± 2.8
9 | Cc1cc(C#N)cc(C)c1Oc1nc(NC2CCN(Cc3ccncc3)CC2)nc2ncsc12 [SZ7, 3,5-dimethyl-4-((5-((1-(pyridin-4-ylmethyl)piperidin-4-yl)amino)thiazolo[4,5-d]pyrimidin-7-yl)oxy)benzonitrile] | 24.7 ± 1.9 | 5.5 ± 1.2 | 5.8 ± 2.2 | 1.8 ± 0.4 | 7.7 ± 1 | 30300 ± 760 | 32.9 ± 23.8 | 5.6 ± 2.2 |  |  | 1227 | 16818 | 1.9 ± 0.6
10 | Cc1cc(C#N)cc(C)c1Oc1nc(NC2CCN(Cc3ccc([N+](=O)[O-])cc3)CC2)nc2ncsc12 [SZ8, 3,5-dimethyl-4-((5-((1-(4-nitrobenzyl)piperidin-4-yl)amino)thiazolo[4,5-d]pyrimidin-7-yl)oxy)benzonitrile] | 129 ± 4.5 |  |  | 3.4 ± 0.2 |  | 5170 ± 134 |  |  |  |  | 40 | 1482 | 
11 | Cc1cc(C#N)cc(C)c1Oc1nc(NC2CCN(Cc3cccc(C(N)=O)c3)CC2)nc2ncsc12 [SZ9] | 559 ± 8.5 |  |  | 1.3 |  | 27300 ± 965 |  |  |  |  | 49 | 20099 | 
12 | Cc1cc(C#N)cc(C)c1Oc1nc(NC2CCN(Cc3ccc(S(N)(=O)=O)cc3)CC2)nc2scnc12 [TZ1] | 18.3 ± 2.3 | 7.9 ± 0.1 | 6.5 ± 1 | 1.6 ± 0.2 | 10.8 ± 0.6 | 23200 ± 1750 | 16 ± 4.6 | 9.6 ± 1.5 |  |  | 1265 | 14194 | 1.9 ± 0.1
13 | Cc1cc(C#N)cc(C)c1Oc1nc(NC2CCN(Cc3ccc(C(N)=O)cc3)CC2)nc2scnc12 [TZ2] | 28.1 ± 13 | 5.2 ± 0.8 | 5.1 ± 0.1 | 1.6 ± 0.1 | 7.2 ± 0.2 | 27100 ± 1300 | 20.3 ± 2.6 | 6.3 ± 2.8 |  |  | 965 | 16412 | 1.6 ± 0.4
14 | Cc1cc(C#N)cc(C)c1Oc1nc(NC2CCN(Cc3ccc(S(C)(=O)=O)cc3)CC2)nc2scnc12 [TZ3, 3,5-dimethyl-4-((5-((1-(4-(methylsulfonyl)benzyl)piperidin-4-yl)amino)thiazolo[5,4-d]pyrimidin-7-yl)oxy)benzonitrile] | 18.1 ± 1.1 | 6.6 ± 0.1 | 7.5 ± 0.6 | 2.3 ± 0.7 | 7.1 ± 0.2 | 14300 ± 5500 | 15.2 ± 3.4 | 5.6 ± 0.7 |  |  | 791 | 6212 | 3.3 ± 0.3
15 | Cc1cc(C#N)cc(C)c1Oc1nc(NC2CCN(Cc3ccncc3)CC2)nc2scnc12 [TZ4, 3,5-dimethyl-4-((5-((1-(pyridin-4-ylmethyl)piperidin-4-yl)amino)thiazolo[5,4-d]pyrimidin-7-yl)oxy)benzonitrile] | 26.8 ± 0.1 | 6.5 ± 0.3 | 5.8 ± 0.1 | 2.7 | 6.6 ± 1 | 28700 ± 489 | 30.9 ± 6.2 | 13.7 ± 7.1 |  |  | 1074 | 10447 | 3.3 ± 2.3
16 | Cc1cc(C#N)cc(C)c1Oc1nc(NC2CCN(Cc3ccc([N+](=O)[O-])cc3)CC2)nc2scnc12 [TZ5, 3,5-dimethyl-4-((5-((1-(4-nitrobenzyl)piperidin-4-yl)amino)thiazolo[5,4-d]pyrimidin-7-yl)oxy)benzonitrile] | 126 ± 16 |  |  | 8.2 ± 1.9 |  | 5680 ± 423 |  |  |  |  | 45 | 687 | 
17 | Cc1cc(C#N)cc(C)c1Oc1nc(NC2CCN(Cc3cccc(C(N)=O)c3)CC2)nc2scnc12 [TZ6] | 222 ± 47 |  |  | 3 ± 0.6 |  | 28800 ± 634 |  |  |  |  | 130 | 9565 | 
